Data published in patent US5851782A, “Inhibitors of ceramidase” (Duke University, priority 1996, dated 1998).

Experiments:
[1] = test system: endogenous ceramide levels in HL-60 cells; test: cells; settings: Homo sapiens, HL-60, 24 h, read-out: endogenous ceramide level relative to baseline
Protocol: (§3) Ceramide and diacylglycerol levels were measured on total liquid extracts using the diacylglycerol kinase assay (Jayadev et al, J. Biol. Chem. 270:2047 (1995)).
(§4) Therefore, HL-60 cells were treated with 5 μM D-e-MAPP, ethanol vehicle or L-e-MAPP for 0-24 h. At the indicated time points (FIG. 4A), total lipids were extracted and endogenous ceramide levels were measured by the Escherichia coli diacylglycerol kinase assay.
(§5) The upper spot of ceramide phosphate co-migrated with synthetic D-erythro-C18 dihydroceramide phosphate whereas the lower spot co-migrated with D-erythro-C18 ceramide phosphate.

HL-60 cells = test: Cellular metabolism of tritium-labeled compounds (TLC); format: cell-based, human; settings: HL-60, 5 μM, TLC
Protocol: (§1) Metabolism studies. Lipids from cells treated with ^3 H-labeled compounds were extracted (Bligh & Dyer method), dried, resuspended in chloroform/methnol (10:1, v/v), and subjected to separation by TLC in chloroform/methanol (4:1, v/v). Spots containing radioactive compounds were scraped and radioactivity was measured using a scintillation counter.
(§2) Next, the metabolism of D- and L-e-MAPP was evaluated. To this end, organic lipids were extracted from cells treated with 5 μM D- or L-e-MAPP at the indicated time points (FIG. 5D), and lipids were resolved on TLC. […] On the other hand, L-e-MAPP underwent significant metabolism in a time-dependent fashion such that by 24 h, more than 70% of the L-e-MAPP taken up by cells was metabolized (FIG. 5, D and E). Two major breakdown products of L-e-MAPP were resolved by TLC. One metabolite co-migrated with […] and not with other neutral or polar lipids. The other metabolite (upper spot in FIG. 5D) comigrated with triacylglycerol.

[2] = test system: endogenous ceramide levels in HL-60 cells; settings: HL-60, TLC of ceramide phosphates
Protocol: as §3, §4, §5

[3] = Cellular metabolism of tritium-labeled compounds (TLC); format: cell-based, human; settings: human, hl-60 cells; HL-60, 5 μM, by 24 h; read-out: fraction of compound taken up that was metabolized
Protocol: as §1, §2

| metabolised at 24 h, 5 µM [3] [%] | Structure (SMILES) | fold induction at 5 µM [1] | metabolism in cells (HL-60 cells) | selectivity of increase, ceramide versus dihydroceramide [2] |
| --- | --- | --- | --- | --- |
| – | CCCCCCCCCCCCCC(=O)N[C@H](C)[C@@H](O)c1ccccc1 [D-e-MAPP, D-erythro-2-(N-myristolyamino)-1-phenyl-1-propanol] | ~3 | showed little metabolism and remained intact | selective increase in ceramide but not dihydroceramide levels |
| > 70 | CCCCCCCCCCCCCC(=O)N[C@@H](C)[C@H](O)c1ccccc1 [L-e-MAPP, L-erythro-2-(N-myristolyamino)-1-phenyl-1-propanol] | – | – | – |
